Data on 13 compounds can be found in patent US20240381872A1, “SUBSTITUTED 2,3-DIHYDRO[1,3]THIAZOLO[4,5-B]PYRIDINES, SALTS THEREOF AND THEIR USE AS HERBICIDALLY ACTIVE SUBSTANCES” (BAYER AKTIENGESELLSCHAFT, priority 2021, published 2024).

Holding throughout (format): in vivo
One series has as its system Lolium rigidum (LOLRI). Put plainly: Herbicidal post-emergence action, section E (Table E6). As to conditions: application rate 320 g/ha, visual assessment ca. 3 weeks after spraying; for pest or weed control at 320 g/ha: Lolium rigidum, 504 h, read-out: post-emergence activity against LOLRI in %. The source says: (§1) Seeds of mono- and dicotyledonous weed plants and crop plants were sown, in plastic or organic planting pots, in sandy loam, covered with soil and grown in a greenhouse under controlled growth conditions. 2 to 3 weeks after sowing, the test plants were sprayed in the single-leaf stage. The compounds according to the invention, formulated in form of wettable powders (WP) or as emulsifiable concentrates (EC), were sprayed onto the green plant parts as aqueous suspension or emulsion, with the addition of 0.5% of an additive, at an application rate of 600 l of water/ha (converted). The test plants were placed in the greenhouse for ca. 3 weeks under optimum growth conditions, and then the effect of the preparations was assessed visually in comparison with untreated controls (herbicidal effect in percent (%): 100% effect=plants have died off, 0% effect=as control plants).

The subject of the next series is Oryza sativa (ORYZA). Put plainly: Pre-emergence effects on crop plants, section D (Table D3). As to conditions: visual grading after ca. 3 weeks. The source says:
(§2) Seeds of mono- and dicotyledonous weed plants and crop plants were sown, in plastic or organic planting pots, in sandy loam and covered with soil. The compounds according to the invention, formulated in the form of wettable powders (WP) or as emulsifiable concentrates (EC), were applied to the surface of the covering soil as aqueous suspension or emulsion, with the addition of 0.5% of an additive, at an application rate of 600 l of water/ha (converted).
(§3) Following treatment, the pots were placed in a greenhouse and kept under optimum growth conditions for the test plants. The visual grading of the damage to the test plants was carried out after ca. 3 weeks in comparison to untreated controls (herbicidal effect in percent (%): 100% effect=plants have died off, 0% effect=as control plants).
(§4) Tables D1 to D5 below show the effects of various compounds of the general formula (I) according to Table 1 on various crop plants and an application rate corresponding to 320 g/ha or below obtained by the experimental procedure mentioned above in Biological Examples, Section C.

A further series concerns Avena fatua (AVEFA). Put plainly: Herbicidal pre-emergence action, section C (Table C4). To be noted: 504 h, application rate 320 g/ha, visual grading ca. 3 weeks after treatment vs untreated controls, 100% = plants have died off, 0% = as control plants, read-out: pre-emergence activity against AVEFA. The source says:
Seeds of mono- and dicotyledonous weed plants and crop plants were sown, in plastic or organic planting pots, in sandy loam and covered with soil. The compounds according to the invention, formulated in the form of wettable powders (WP) or as emulsifiable concentrates (EC), were applied to the surface of the covering soil as aqueous suspension or emulsion, with the addition of 0.5% of an additive, at an application rate of 600 l of water/ha (converted). Following treatment, the pots were placed in a greenhouse and kept under optimum growth conditions for the test plants. The visual grading of the damage to the test plants was carried out after ca. 3 weeks in comparison to untreated controls (herbicidal effect in percent (%): 100% effect=plants have died off, 0% effect=as control plants).

Another series relates to Brassica napus (BRSNW). Put plainly: Pre-emergence effects on crop plants, section D (Table D5). To be noted: visual grading after ca. 3 weeks.
Excerpt: as §2, §3, §4

Series [1] relates to Digitaria sanguinalis (DIGSA). Put plainly: Herbicidal post-emergence action, section E (Table E4). As to conditions: application rate 80 g/ha; assessed visually ca. 3 weeks after treatment vs untreated controls; 100% = plants have died off, 0% = as control plants.
Excerpt: as §1

The test system of a further series is Viola tricolor (VIOTR). As to the kind of experiment: Herbicidal post-emergence action, section E (Table E10). To be noted: application rate 320 g/ha, visual assessment ca. 3 weeks after spraying.
Excerpt: as §1

Molecules are shown by their SMILES.

Regarding `Fc1ccccc1-c1nc2c(cc1Br)SCN2` [Example I-001, 6-bromo-5-(2-fluorophenyl)-2,3-dihydro[1,3]thiazolo[4,5-b]pyridine], the pest or weed control at 320 g/ha in the series with Lolium rigidum (LOLRI) is 90%; in the series with Avena fatua (AVEFA), 80%. Besides, the “pre-emergence activity against ORYZA in % (crop plant damage)” value in the series with Oryza sativa (ORYZA) (application rate 80 g/ha) stood at 20%. Besides, the “pre-emergence activity against BRSNW in % (crop plant damage)” value in the series with Brassica napus (BRSNW) (application rate 320 g/ha) is on record as 20%.
For the compound `COC(=O)CCC(=O)N1CSc2cc(Cl)c(-c3ccccc3F)nc21` [Example I-003], the “pre-emergence activity against BRSNW in % (crop plant damage)” value in the series on Brassica napus (BRSNW) (application rate 80 g/ha) is on record as 20%.
For `Cc1cc2c(nc1-c1ccccc1F)NCS2` [Example I-007, 5-(2-fluorophenyl)-6-methyl-2,3-dihydro[1,3]thiazolo[4,5-b]pyridine], in the series on Avena fatua (AVEFA), the pest or weed control at 320 g/ha was 80%. Besides, the “post-emergence activity against DIGSA” value in series [1] amounted to 90%.
With `Clc1ccccc1-c1nc2c(cc1Br)SCN2` [Example I-041, 6-bromo-5-(2-chlorophenyl)-2,3-dihydro[1,3]thiazolo[4,5-b]pyridine], the “pre-emergence activity against ORYZA in % (crop plant damage)” value with Oryza sativa (ORYZA) (application rate 320 g/ha) was found to be 20%.
Turning to `CC(=O)N1CSc2cc(Br)c(-c3ccccc3Cl)nc21` [Example I-055, 1-[6-bromo-5-(2-chlorophenyl)[1,3]thiazolo[4,5-b]pyridin-3(2H)-yl]ethanone], the “pre-emergence activity against ORYZA in % (crop plant damage)” value in the series with Oryza sativa (ORYZA) (application rate 320 g/ha) is reported as 20%. The “pre-emergence activity against BRSNW in % (crop plant damage)” value in the series on Brassica napus (BRSNW) (application rate 80 g/ha) was 20%.
Turning to `CCS(=O)(=O)N1CSc2cc(C)c(-c3ccccc3F)nc21` [Example I-060, 3-(ethylsulfonyl)-5-(2-fluorophenyl)-6-methyl-2,3-dihydro[1,3]thiazolo[4,5-b]pyridine], the pest or weed control at 320 g/ha with Avena fatua (AVEFA) stood at 90%.
Consider `CC(C)C(=O)N1C[S+]([O-])c2cc(Br)c(-c3ccccc3)nc21` (stereo not drawn) [Example I-067], for which the “pre-emergence activity against ORYZA in % (crop plant damage)” value with Oryza sativa (ORYZA) (application rate 80 g/ha) is given as 20%.
Take `Cc1cc2c(nc1-c1ccccc1F)N(C(=O)C1(C)CC(Cl)=NO1)CS2` (stereo not drawn) [Example I-083]: in the series on Oryza sativa (ORYZA) (application rate 80 g/ha), the “pre-emergence activity against ORYZA in % (crop plant damage)” value is recorded as 20%.
Take `Cc1cc2c(nc1-c1ccccc1)N(C(=O)C1(C)CC(Cl)=NO1)CS2` (stereo not drawn) [Example I-088]: in the series with Viola tricolor (VIOTR), the “post-emergence activity against VIOTR in %” value was determined as 80%.
The same measure, in the same setting: in the case of `Cc1cc2c(nc1-c1ccccc1F)N(C(=O)C13CCCC1C(Cl)=NO3)CS2` (stereo not drawn) [Example I-104] it was 80%.
As for `CCOCCS(=O)(=O)N1C[S+]([O-])c2cc(C)c(-c3ccccc3F)nc21` (stereo not drawn) [Example I-127], the pest or weed control at 320 g/ha in the series with Lolium rigidum (LOLRI) was 80%.
`COCC1(C(=O)N2CSc3cc(C)c(-c4ccccc4F)nc32)CC(Cl)=NO1` (stereo not drawn) [Example I-128]: the “post-emergence activity against LOLRI in %” value in the series with Lolium rigidum (LOLRI) is 80%.
Consider `CC1(C(=O)N2CSc3cc(Br)c(-c4ccccc4Cl)nc32)CC(Cl)=NO1` (stereo not drawn) [Example I-141, [6-bromo-5-(2-chlorophenyl)[1,3]thiazolo[4,5-b]pyridin-3(2H)-yl](3-chloro-5-methyl-4,5-dihydro-1,2-oxazol-5-yl)methanone], for which, in the series with Brassica napus (BRSNW) (application rate 80 g/ha), the “pre-emergence activity against BRSNW in % (crop plant damage)” value was found to be 20%.
